Target: T1, S-ribosylhomocysteine lyase (Vibrio harveyi, UniProt B0LUE4)
T1 sequence (B0LUE4 whole entry): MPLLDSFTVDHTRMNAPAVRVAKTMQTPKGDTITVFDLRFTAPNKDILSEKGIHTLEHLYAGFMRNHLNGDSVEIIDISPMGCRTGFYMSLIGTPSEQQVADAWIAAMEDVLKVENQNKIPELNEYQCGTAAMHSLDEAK
Test: inhibition of purified LuxS SRH cleavage – biochemical, cell-free, homogeneous, mechanism study for V. harveyi quorum sensing inhibitors, dose response (AID 434944)

| Compound | EC50 [µM] |
| --- | --- |
| CN(C)S(=O)(=O)c1ccc(NC(=S)NC(=O)Cc2ccccc2)cc1 [N-[[4-(dimethylsulfamoyl)phenyl]carbamothioyl]-2-phenyl-ethanamide] | > 350 |
| CCc1ccc(S(=O)(=O)Nc2ccc(Br)cn2)cc1 [MLS001211346] | > 350 |
| COc1cc(NC(=O)CN2C(=O)NC(c3ccccc3)(c3ccccc3)C2=O)cc(OC)c1 [MLS001176525] | > 350 |
| Cc1cccc(NS(=O)(=O)c2ccc(Oc3ccccc3)cc2)n1 [SMR000071466] | > 350 |
| C=Cn1c(C(=O)O)ccc1-c1ccc(CC)cc1 | 149 |
| CCCc1ccc(S(=O)(=O)N(C)S(=O)(=O)c2ccc(F)cc2)cc1 [N-(4-fluorophenyl)sulfonyl-N-methyl-4-propylbenzenesulfonamide] | > 350 |
| Cn1cnc(S(=O)(=O)Nc2ccc(OC(F)(F)F)cc2)c1 [SMR000314513] | > 350 |

Source: BindingDB's records for doi:10.7270/Q23F4N29 (Broad Institute, 2010)
